Assay results published in ChEMBL document CHEMBL6083208, “Integrating amino acids into Bcr-Abl inhibitors: design, synthesis, biological evaluation, and in silico studies” (RSC Med Chem, 2024).

Legend:
Bcr/Abl fusion protein = Bcr/Abl fusion protein (Homo sapiens, UniProt P00519); experiment: Inhibition of wild type Bcr-Abl (unknown origin) using Abltide as substrate incubated for 1 hr by luminescence based ADP-glo assay; assay type: protein assay
[1] = Inhibition of Bcr-Abl T315Ialpha mutant (unknown origin) using Abltide as substrate incubated for 1 hr by luminescence based ADP-glo assay; set-up: species or system Homo sapiens
BaF3 [2] = experiment: Antiproliferative activity against mouse BaF3 cells harbouring Bcr-Abl T315I assessed of cell viability at 30 uM incubated for 72 hrs by Celltiter-glo luminescent cell viability assay relative to control; assay type: functional
HEK293 = experiment: Antiproliferative activity against HEK293 cells after 48 hrs by MTT assay; assay type: toxicity, cell-based; set-up: concentration or dose not given beside the values; conditions: human, hek293, 48 h
THP-1 = experiment: Antiproliferative activity against human THP-1 cells after 48 hrs by MTT assay; assay type: functional; set-up: concentration or dose not given beside the values
K562 = experiment: cells; conditions: Homo sapiens, K562, 48 h
BaF3 [3] = experiment: Antiproliferative activity against mouse BaF3 cells harbouring Bcr-Abl T315I assessed of cell viability at 10 uM incubated for 72 hrs by Celltiter-glo luminescent cell viability assay relative to control; assay type: functional
BaF3 [4] = experiment: Antiproliferative activity against mouse BaF3 cells harbouring Bcr-Abl T315I assessed of cell viability at 2 uM incubated for 72 hrs by Celltiter-glo luminescent cell viability assay relative to control; assay type: functional

Bcr/Abl fusion protein, sequence (P00519 whole entry, the tested form may be a part): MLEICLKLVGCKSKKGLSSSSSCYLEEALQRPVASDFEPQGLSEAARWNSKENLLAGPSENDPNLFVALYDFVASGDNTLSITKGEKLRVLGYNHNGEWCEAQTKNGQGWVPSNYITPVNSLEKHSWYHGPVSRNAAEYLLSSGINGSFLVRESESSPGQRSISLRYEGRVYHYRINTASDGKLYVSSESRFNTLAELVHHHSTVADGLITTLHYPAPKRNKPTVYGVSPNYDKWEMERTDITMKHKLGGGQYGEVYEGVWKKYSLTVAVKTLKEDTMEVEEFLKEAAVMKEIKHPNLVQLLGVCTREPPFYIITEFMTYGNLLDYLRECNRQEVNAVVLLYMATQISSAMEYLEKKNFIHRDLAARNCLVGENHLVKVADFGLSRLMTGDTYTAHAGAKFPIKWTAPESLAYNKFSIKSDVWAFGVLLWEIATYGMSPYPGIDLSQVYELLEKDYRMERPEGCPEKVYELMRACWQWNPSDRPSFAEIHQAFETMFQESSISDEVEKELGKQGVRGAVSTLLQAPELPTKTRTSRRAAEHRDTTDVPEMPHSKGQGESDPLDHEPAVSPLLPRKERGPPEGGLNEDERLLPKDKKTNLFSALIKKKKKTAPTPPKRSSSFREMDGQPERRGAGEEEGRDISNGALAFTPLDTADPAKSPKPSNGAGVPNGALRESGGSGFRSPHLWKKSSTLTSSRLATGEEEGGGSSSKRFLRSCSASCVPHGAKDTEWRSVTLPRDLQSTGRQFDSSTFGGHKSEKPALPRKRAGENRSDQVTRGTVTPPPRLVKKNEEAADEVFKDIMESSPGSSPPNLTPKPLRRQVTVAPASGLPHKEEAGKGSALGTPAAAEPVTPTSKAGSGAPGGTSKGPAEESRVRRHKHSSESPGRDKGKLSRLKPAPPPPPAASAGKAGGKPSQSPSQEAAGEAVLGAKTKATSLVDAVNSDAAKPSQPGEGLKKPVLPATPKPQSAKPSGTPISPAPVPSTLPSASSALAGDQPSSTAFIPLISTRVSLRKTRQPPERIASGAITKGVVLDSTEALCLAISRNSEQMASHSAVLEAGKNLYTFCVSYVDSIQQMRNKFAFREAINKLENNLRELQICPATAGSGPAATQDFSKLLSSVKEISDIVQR
Bcr/Abl fusion protein, sequence (P11274 whole entry, further chain, the tested form may be a part): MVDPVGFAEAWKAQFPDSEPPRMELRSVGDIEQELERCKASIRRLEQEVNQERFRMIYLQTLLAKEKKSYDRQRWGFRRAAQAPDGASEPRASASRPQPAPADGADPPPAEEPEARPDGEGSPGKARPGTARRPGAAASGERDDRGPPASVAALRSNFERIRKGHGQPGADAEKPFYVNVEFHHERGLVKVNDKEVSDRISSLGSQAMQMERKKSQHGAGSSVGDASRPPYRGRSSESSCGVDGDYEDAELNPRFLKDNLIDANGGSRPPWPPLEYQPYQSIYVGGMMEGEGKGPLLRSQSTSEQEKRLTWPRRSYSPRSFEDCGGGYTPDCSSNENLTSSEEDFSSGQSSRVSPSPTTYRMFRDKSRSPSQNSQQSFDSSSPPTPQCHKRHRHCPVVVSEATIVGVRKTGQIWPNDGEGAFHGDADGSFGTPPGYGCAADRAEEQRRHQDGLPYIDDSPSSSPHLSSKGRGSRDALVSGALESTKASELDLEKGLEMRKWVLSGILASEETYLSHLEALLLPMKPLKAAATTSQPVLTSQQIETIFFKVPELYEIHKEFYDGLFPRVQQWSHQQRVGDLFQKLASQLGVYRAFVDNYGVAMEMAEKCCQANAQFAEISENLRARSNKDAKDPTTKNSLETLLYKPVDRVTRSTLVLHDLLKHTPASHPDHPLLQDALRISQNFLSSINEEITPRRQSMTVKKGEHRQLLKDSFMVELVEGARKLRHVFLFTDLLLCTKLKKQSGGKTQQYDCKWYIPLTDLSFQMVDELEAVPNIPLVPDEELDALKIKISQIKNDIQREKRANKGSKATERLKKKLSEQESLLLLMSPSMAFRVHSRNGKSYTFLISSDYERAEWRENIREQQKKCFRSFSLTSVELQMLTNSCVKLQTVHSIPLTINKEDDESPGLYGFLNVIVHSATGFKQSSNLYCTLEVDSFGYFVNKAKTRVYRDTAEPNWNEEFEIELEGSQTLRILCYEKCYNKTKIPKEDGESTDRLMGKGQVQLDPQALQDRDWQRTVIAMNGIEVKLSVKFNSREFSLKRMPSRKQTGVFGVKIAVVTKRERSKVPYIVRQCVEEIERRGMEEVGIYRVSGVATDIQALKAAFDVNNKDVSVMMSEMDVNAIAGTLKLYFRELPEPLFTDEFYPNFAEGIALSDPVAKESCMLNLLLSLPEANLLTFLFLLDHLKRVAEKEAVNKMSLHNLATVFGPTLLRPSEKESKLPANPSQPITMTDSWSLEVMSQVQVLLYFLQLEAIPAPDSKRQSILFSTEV

Structure (SMILES) | IC50 (Bcr/Abl fusion protein) [nM] | IC50 [1] [nM] | IC50 (K562) [nM] | inhibition at 30 µM (BaF3 [2]) [%] | Activity (HEK293) [%] | Activity (THP-1) [%] | inhibition at 10 µM (BaF3 [3]) [%] | inhibition at 2 µM (BaF3 [4]) [%]
CC(C)(C)C(=O)Nc1ccc(-c2cccc(C(=O)N[C@@H](CO)C(=O)Nc3ccc(Cl)c(C(F)(F)F)c3)c2)cn1 | 7.29 | 504 | 4.86 | – | 100 | 77 | 96.8 | 0.99
Cc1ccc(C(=O)Nc2ccc(CN3CCN(C)CC3)c(C(F)(F)F)c2)cc1C#Cc1cnc2cccnn12 [PONATINIB] | – | – | 0.049 | – | 55 | 3 | – | –
CC(=O)Nc1ccc(-c2cccc(C(=O)N[C@H](C(=O)Nc3ccc(Cl)c(C(F)(F)F)c3)C(C)(C)C)c2)cn1 | 7.26 | 165 | 10.1 | – | 86 | 100 | 100 | 7.81
CCN(CC)C(=O)c1cncc(-c2cccc(C(=O)N[C@@H](CO)C(=O)Nc3ccc(Cl)c(C(F)(F)F)c3)c2)c1 | 3.57 | 295 | 4.92 | 53.2 | 84 | 75 | – | –
CCN(CC)C(=O)c1cncc(-c2ccc(C(=O)N[C@H](C(=O)Nc3ccc(Cl)c(C(F)(F)F)c3)C(C)(C)C)cc2)c1 | 4.5 | 185 | 10.2 | 42.8 | 97 | 56 | – | –
CC(C)(C)C(=O)Nc1cc(-c2ccc(C(=O)N[C@H](C(=O)Nc3ccc(Cl)c(C(F)(F)F)c3)C(C)(C)C)cc2)ccn1 | 16.8 | 481 | 5.36 | 8.24 | 87 | 94 | – | –
CC(C)(C)OC[C@H](NC(=O)c1cccc(-c2ccc(NC(=O)C(C)(C)C)nc2)c1)C(=O)Nc1ccc(Cl)c(C(F)(F)F)c1 | 8.61 | 436 | 1.26 | -5.67 | 72 | 73 | – | –
CC(C)(C)OC[C@H](NC(=O)c1ccc(-c2cncc(C(=O)NC3CC3)c2)cc1)C(=O)Nc1ccc(Cl)c(C(F)(F)F)c1 | 15.5 | 128 | 2.5 | 69.7 | 84 | 79 | – | –
CCN(CC)C(=O)c1cncc(-c2cccc(C(=O)N[C@@H](COC(C)(C)C)C(=O)Nc3ccc(Cl)c(C(F)(F)F)c3)c2)c1 | 33 | 132 | 8.11 | 58.4 | 100 | 84 | – | –
CCN(CC)C(=O)c1cncc(-c2ccc(C(=O)N[C@@H](COC(C)(C)C)C(=O)Nc3ccc(Cl)c(C(F)(F)F)c3)cc2)c1 | 5.46 | 144 | 6.26 | 35 | 73 | 100 | – | –
CC(=O)Nc1ccc(-c2cccc(C(=O)N[C@@H](COC(C)(C)C)C(=O)Nc3ccc(Cl)c(C(F)(F)F)c3)c2)cn1 | 56 | 723 | 19.4 | 77.1 | 98 | 64 | – | –
CCN(CC)C(=O)c1cncc(-c2cccc(C(=O)N[C@H](C(=O)Nc3ccc(Cl)c(C(F)(F)F)c3)C(C)(C)C)c2)c1 | 6.69 | 148 | 2.66 | 50.8 | 100 | 55 | – | –
CC(C)(C)OC[C@H](NC(=O)c1ccc(-c2ccnc(C(=O)NC3CC3)c2)cc1)C(=O)Nc1ccc(Cl)c(C(F)(F)F)c1 | 11.4 | 183 | 10.7 | – | 84 | 62 | 22.5 | 0
CC(C)(C)OC[C@H](NC(=O)c1cccc(-c2ccc(NC(=O)C3CC3)nc2)c1)C(=O)Nc1ccc(Cl)c(C(F)(F)F)c1 | 3.75 | 204 | – | -4.27 | 92 | 74 | – | –
CC(C)(C)OC[C@H](NC(=O)c1cccc(-c2cncc(C(=O)NC3CC3)c2)c1)C(=O)Nc1ccc(Cl)c(C(F)(F)F)c1 | 9.3 | 608 | 8.86 | – | 95 | 69 | 94.1 | 1.93
CC(C)(C)[C@H](NC(=O)c1cccc(-c2cncc(C(=O)NC3CC3)c2)c1)C(=O)Nc1ccc(Cl)c(C(F)(F)F)c1 | 34 | 207 | 8.47 | – | 90 | 100 | 65.6 | 7.2
CC(C)(C)OC[C@H](NC(=O)c1ccc(-c2ccnc(NC(=O)C(C)(C)C)c2)cc1)C(=O)Nc1ccc(Cl)c(C(F)(F)F)c1 | 4.44 | 303 | 3.12 | -3.86 | 90 | 63 | – | –

The next lines start with results.

IC50 (Bcr/Abl fusion protein) [nM] | IC50 [1] [nM] | IC50 (K562) [nM] | Structure (SMILES) | inhibition at 30 µM (BaF3 [2]) [%] | Activity (HEK293) [%] | Activity (THP-1) [%] | inhibition at 10 µM (BaF3 [3]) [%] | inhibition at 2 µM (BaF3 [4]) [%]
0.27 | 105 | 1.27 | CC(C)(C)OC[C@H](NC(=O)c1cccc(-c2ccc(N)nc2)c1)C(=O)Nc1ccc(Cl)c(C(F)(F)F)c1 | -5 | 96 | 100 | – | –
1.11 | 60 | 1.68 | O=C(NC1CC1)c1cncc(-c2ccc(C(=O)N[C@@H](CO)C(=O)Nc3ccc(Cl)c(C(F)(F)F)c3)cc2)c1 | 82.5 | 89 | 58 | – | –
0.27 | 261 | 12.2 | CCN(CC)C(=O)c1cncc(-c2ccc(C(=O)N[C@@H](CO)C(=O)Nc3ccc(Cl)c(C(F)(F)F)c3)cc2)c1 | -1.59 | 74 | 100 | – | –
0.33 | 87 | 0.13 | CS(=O)(=O)Nc1cc(-c2ccc(C(=O)N[C@@H](CO)C(=O)Nc3ccc(Cl)c(C(F)(F)F)c3)cc2)ccn1 | 5.71 | 78 | 87 | – | –
0.8 | 136 | 2.64 | CC(=O)Nc1cc(-c2ccc(C(=O)N[C@@H](CO)C(=O)Nc3ccc(Cl)c(C(F)(F)F)c3)cc2)ccn1 | 58.8 | 91 | 72 | – | –
0.93 | 217 | 1.33 | CS(=O)(=O)Nc1ccc(-c2cccc(C(=O)N[C@@H](CO)C(=O)Nc3ccc(Cl)c(C(F)(F)F)c3)c2)cn1 | 62.8 | 94 | 83 | – | –
0.24 | 99 | 0.36 | Nc1cc(-c2ccc(C(=O)N[C@@H](CO)C(=O)Nc3ccc(Cl)c(C(F)(F)F)c3)cc2)ccn1 | -3.39 | 83 | 100 | – | –
1.35 | 348 | 2.79 | O=C(NC1CC1)c1cncc(-c2cccc(C(=O)N[C@@H](CO)C(=O)Nc3ccc(Cl)c(C(F)(F)F)c3)c2)c1 | 66.1 | 99 | 72 | – | –
